One data set relates to water louse. The note with it: naturalistic pond experiment; ref Lagesson et al. 2016; cited from earlier work.
Data set [1] in a line: in vivo. As to conditions: nine-spine stickleback (Pungitius pungitius), 187 ng/L.
Excerpt: (§5) Nine-spine stickleback were collected using umbrella traps from ponds in Röbäck, Sweden, in July 2017. Fish were housed in a large, aerated, ground water flow-through tank (1500 L) until the start of the experiment. Fish were fed frozen chironomid larvae until satiation once daily. Water louse were collected using sweep nets from Djupsundsbäcken near Holmsund, Sweden, in January 2018. Water louse were kept in aerated containers with detritus (predominately alder leaf litter) until the start of the experiment.
(§6) Stickleback and water louse were exposed to 187 ng/L (nominal concentration) methylphenidate at two temperature treatments: 10 °C (in a climate chamber) and 20 °C (ambient room temperature). Both exposures were maintained at the same light cycle used in study 1. Organisms were exposed under static conditions using three replicate glass aquaria filled with 20 L water. The aquaria were equipped with an airstone and two ceramic clay pots for shelter in each temperature treatment. Fish were exposed in two tanks, while water louse were exposed separately in the remaining tank. Water from each tank was sampled at 0 min (immediately after dosing), 15 min, 30 min, 60 min, 4 h, 8 h, 24 h, 3 days, 5 days, 7 days, 9 days, 10 days, 11 days, 12 days, and 13 days. Three to six water louse and three to six fish were sampled at each of the following time points: 60 min, 4 h, 8 h, 24 h, 3 days, 5 days, 7 days, 9 days, 10 days, 11 days, 12 days, and 13 days. Fish were euthanized via cerebral concussion and spinal severance. Water quality measures of pH (Merck pH Universal Indicator Strips), dissolved oxygen, and temperature (YSI Pro DO Series) were verified in the exposure tanks on the final days of sampling. For the low (10 °C) and high (20 °C) temperature rooms, respectively, water temperature was (mean ± s.d.) 10.03 ± 0.32 °C and 17.07 ± 0.21 °C; dissolved oxygen was 14.40 ± 0.27 mg/L and 12.30 ± 0.30 mg/L; and there were no changes in pH (7 ± 0, for both temperatures).
(§7) Immediately after sampling, all water and organisms sampled were frozen at − 20 °C until further processing. Muscle tissue (mean ± s.d. 0.09 ± 0.02 g; range 0.02–0.13 g) was dissected from each stickleback by taking a section of the dorsal axial muscle. Water louse collected from each temperature treatment (10 °C and 20 °C) on each sampling day were pooled due to low sample weight before extracting whole-body tissue (0.05 ± 0.01 g; range 0.03–0.07 g). However, when enough tissue was available, multiple water louse samples were analysed. To each sample, 5 ng (50 μL) of the internal standard methylphenidate-D9 (Cerilliant, USA; in methanol, HPLC-grade, Fisher Chemical, Loughborough, UK) was added. For both stickleback and water louse, tissues were extracted using 1.5 ml acetonitrile (HPLC-grade, Fisher Chemical, Loughborough, UK) repeated twice (based on the method used by Brodin et al. [2013]; McCallum et al. [2017], [2018]). The samples were homogenized and extracted for 4 min at 42,000 oscillations per minute (Mini Beadbeater, Biospec. Bartlesville, USA) with zirconium beads and then centrifuged the samples at 17,500 g for 10 min (Beckman Coulter Microfuge 22R Centrifuge). This protocol was used for both eluent mixtures, and the supernatants were combined. The combined supernatants were evaporated to 20 μl and the sample was reconstituted in 100 μl methanol (HPLC-grade, Fisher Chemical, Loughborough, UK). […]
Data set [2] is described as follows: in vivo. The note with it: water louse (Asellus aquaticus), 187 ng/L.
Excerpt: as §5, §6
(§8) Immediately after sampling, all water and organisms sampled were frozen at − 20 °C until further processing. Muscle tissue (mean ± s.d. 0.09 ± 0.02 g; range 0.02–0.13 g) was dissected from each stickleback by taking a section of the dorsal axial muscle. Water louse collected from each temperature treatment (10 °C and 20 °C) on each sampling day were pooled due to low sample weight before extracting whole-body tissue (0.05 ± 0.01 g; range 0.03–0.07 g). However, when enough tissue was available, multiple water louse samples were analysed. To each sample, 5 ng (50 μL) of the internal standard methylphenidate-D9 (Cerilliant, USA; in methanol, HPLC-grade, Fisher Chemical, Loughborough, UK) was added. For both stickleback and water louse, tissues were extracted using 1.5 ml acetonitrile (HPLC-grade, Fisher Chemical, Loughborough, UK) repeated twice (based on the method used by Brodin et al. [2013]; McCallum et al. [2017], [2018]). The samples were homogenized and extracted for 4 min at 42,000 oscillations per minute (Mini Beadbeater, Biospec. Bartlesville, USA) with zirconium beads and then centrifuged the samples at 17,500 g for 10 min (Beckman Coulter Microfuge 22R Centrifuge). This protocol was used for both eluent mixtures, and the supernatants were combined. The combined supernatants were evaporated to 20 μl and the sample was reconstituted in 100 μl methanol (HPLC-grade, Fisher Chemical, Loughborough, UK).
Another data set has as its system human. As to conditions: oral administration, ref Gualtieri et al. 1982, Doerge et al. 2000; cited from earlier work.
In a further data set the test system is rhesus macaque. The note with it: oral administration, ref Gualtieri et al. 1982, Doerge et al. 2000; cited from earlier work.
The nature of data set [3]: Study 2: static water + biota, concentrations in the water column. As to conditions: for Water concentration, measured end / Water concentration, measured start / half-life at 187 ng/L / Formation time of ritalinic acid in water: static + biota; for Water concentration, measured end: final sampling day; for Water concentration, measured end / Water concentration, measured start: nominal 187 ng/L methylphenidate, mean ± s.d.; for Water concentration, measured start: immediately after dosing, Ntanks = 3; for half-life at 187 ng/L: aquarium water with biota (stickleback or water louse), pH 7, Half-life of methylphenidate in water. Here is the method: Stickleback and water louse were exposed to 187 ng/L (nominal concentration) methylphenidate at two temperature treatments: 10 °C (in a climate chamber) and 20 °C (ambient room temperature). Both exposures were maintained at the same light cycle used in study 1. Organisms were exposed under static conditions using three replicate glass aquaria filled with 20 L water. The aquaria were equipped with an airstone and two ceramic clay pots for shelter in each temperature treatment. Fish were exposed in two tanks, while water louse were exposed separately in the remaining tank. Water from each tank was sampled at 0 min (immediately after dosing), 15 min, 30 min, 60 min, 4 h, 8 h, 24 h, 3 days, 5 days, 7 days, 9 days, 10 days, 11 days, 12 days, and 13 days. Three to six water louse and three to six fish were sampled at each of the following time points: 60 min, 4 h, 8 h, 24 h, 3 days, 5 days, 7 days, 9 days, 10 days, 11 days, 12 days, and 13 days. Fish were euthanized via cerebral concussion and spinal severance. Water quality measures of pH (Merck pH Universal Indicator Strips), dissolved oxygen, and temperature (YSI Pro DO Series) were verified in the exposure tanks on the final days of sampling.
(§1) Fifty microlitres of methylphenidate-D9 (500 ng/L) was added to 10-ml aliquots of the aqueous samples, filtered (0.45 μm, Filtropur S, Sarstedt, N~umbrecht, Germany), and acidified with 10 μL formic acid (0.1% v/v, Merck KGaA, Darmstadt, Germany) to a pH of 2.7.
(§2) All of the samples were injected to an EQuan MAX Plus LC-Quantiva triple quadrupole MS/MS (Thermo Scientific, San Jose, USA). A 10-μL injection volume was used for stickleback/louse extracts and the calibration curve. For the aqueous samples, and the corresponding calibration curve, a 1-mL injection volume was used and preconcentrated the analytes on an online-connected Oasis HLB column (2.1 × 20 mm, 15 μm Waters, Milford, USA) using column switching (70 s transfer time and 180 s elution time). Milli-Q ultra-pure water (Millipore) and methanol (Lichrosolv, Hypergrade, Merck) were used as mobile phases (both containing 0.1% formic acid (Suprapur, Merck KGaA), v/v) together with Hypersil GOLD columns (Thermo Scientific) as stationary phases: guard (20 × 2.1 mm, 3 μm) and analytical (50 × 2.1 mm, 3 μm). The flow rate was kept at 350 μL/min, and we used two linear gradients. The gradient for the stickleback/louse extracts were as follows: 0–2 min, methanol 2%; 2–4 min, methanol 2–100%; 4–6 min, methanol 100%; and 6.01–7.5 min, methanol 2%. For the aqueous samples, the gradient was 0–2 min, methanol 2%; 2–4.75 min, methanol 2–100%; 4.75–7 min, methanol 100%; and 7.01–9 min, methanol 2%.
(§3) Positive polarity and a heated electrospray at 338 °C, an ion transfer tube temperature at 350 °C, and a spray voltage at 3.5 kV were used. […] See supplementary materials for QA/QC data.
(§4) All analyses were conducted in R (version: 3.5.0; R Core Team [2018]). […] Welch’s two-sample t tests were used to analyse whether methylphenidate degradation in the water column was impacted by temperature treatment. […] Degradation/formation rate, kd, is the slope given by a linear regression analysis. […] Relative tissue uptake was calculated at each sampling point.

A further data set has as its system zebrafish (Danio rerio). More on the design: method as in Endres et al. 2017. As to conditions: stressed zebrafish; environmentally relevant concentrations; ref Endres et al. 2017; cited from earlier work.
For data set [4] the following is noted: ref SciFinder; cited from earlier work.
A further data set deals with humans. The note with it: standard dose (18 mg); ref Faraj et al. 1974; Concerta Prescribing Information 2013; cited from earlier work.
The subject of another data set is zebrafish. More on the design: method as in Levin et al. 2011. The note with it: zebrafish exposed to 50 mg/L as embryos; ref Levin et al. 2011; cited from earlier work.
A short description of data set [5]: Study 1: static water only, stability of methylphenidate and breakdown to ritalinic acid. The note with it: for Water concentration, measured end: final sampling day; for Water concentration, measured end / Water concentration, measured start: nominal 1870 ng/L methylphenidate, Ntanks = 1; for Water concentration, measured start: immediately after dosing. As for the experimental part:
A total of 1870 ng/L (nominal concentration) of methylphenidate (1 mL of the stock solution) was added to a glass aquarium filled with 20 L of ground water. The tank was aerated and kept at 20 °C (ambient room temperature). Water was sampled at 0 min (immediately after dosing), 5 min, 15 min, 45 min, 90 min, 4 h, 10 h, 24 h, 2 days, 3 days, 4 days, 5 days, 7 days, and 12 days. This exposure was conducted in a windowless room with a light-dark cycle of 13L:11D.
as §1, §2, §3, §4

The subject of data set [6] is water louse (Asellus aquaticus). As to the kind of experiment: Study 2: uptake in whole-body tissue of water louse. As to conditions: for Start relative tissue concentration (Cb/Cw): 60 min after dosing; for End relative tissue concentration (Cb/Cw): final sampling day.
Excerpt: as §5, §6, §8
Data set [7] has as its system nine-spine stickleback (Pungitius pungitius). As to the kind of experiment: Study 2: uptake in muscle tissue of stickleback. As to conditions: for Start relative tissue concentration (Cb/Cw): 60 min after dosing.
Excerpt: as §5, §6, §7
In data set [8] the test system is guppies (Poecilia reticulata). On the set-up: method as in De Serrano et al. 2016. As to conditions: adult guppies exposed to 250 ng/L; ref De Serrano et al. 2016; cited from earlier work.

“And” between values parts separate entries of the source, which are not always exact repeats. Equal values may be shown once.

These results are taken from paper PMC6469618 (Environmental Science and Pollution Research International, 2019).

Take `OCCOCCN1CCN(C(c2ccccc2)c2ccc(Cl)cc2)CC1` (stereo not drawn) [hydroxyzine]: the “Bioconcentration in water louse compared to European perch (Perca fluviatilis)” value in the data set with water louse is reported as “higher levels”.
Usually half-life stands for the time in which the quantity being followed falls by half. By pKa is commonly meant the pH at which an ionisable group is half protonated. For `COC(=O)C(c1ccccc1)C1CCCCN1` (stereo not drawn) [methylphenidate], the values for the concentration at 60 min in “in vivo [1]” and in the data set “in vivo [2]” were 0.18 ng/g and 0.2 ng/g, respectively. This compound returned a concentration at 13 days in the data set “in vivo [2]” of 0.1 ng/g. In addition, the “Time of peak in plasma” value in the data set on human and with rhesus macaque was 1 to 4 h each time. The “Water concentration, measured end” value in data set [3] (10 °C) was determined as 28 ± 4 ng/L; in data set [3] (20 °C), 2 ± 1 ng/L; in data set [5] (20 °C, static water only), 7 ng/L. The “Water concentration, measured start” value in data set [3] (10 °C) was 192 ± 28 ng/L; in [3] (20 °C), 205 ± 19 ng/L; in [5] (20 °C, static water only) it was 1660 ng/L. The figures for the half-life at 187 ng/L in data set [3] (10 °C) and in data set [3] (20 °C) were 122 h and 47 h, respectively. The “Effect on anxiety-like behaviours (e.g., freezing, hiding)” value in the data set on zebrafish (Danio rerio) is listed as “inhibited anxiety-like behaviours”. Also, the pKa in data set [4] is 9.5. For the same compound, the “Share of dose excreted as ritalinic acid” value with humans is listed as “up to 80%”. In addition, the “Effect on anxiety behaviours” value (with zebrafish; in [8]) was “Reductions in anxiety behaviours” each time. In addition, the half-life at 1870 ng/L in data set [5] (ground water in an aerated glass aquarium, no biota) was 37 h. The “Time that concentrations stay above ~ 180 ng/L in the water column” value in data set [5] (study not given) is “up to 2 days”. Also, the “Start relative tissue concentration (Cb/Cw)” value is given as 0.6 in data set [6] (10 °C), 1.1 in data set [6] (20 °C), 1.2 ± 0.5 (0.7–2.1) in data set [7] (10 °C) and 0.5 ± 0.1 (0.4–0.7) in [7] (20 °C). Also, the results for the “End relative tissue concentration (Cb/Cw)” value in data set [6] (10 °C) and in [6] (20 °C) were 7.5 ± 3.2 (4.0–10.4) and 50.0, respectively. In addition, in data set [6] (depending on temperature), the “Time of peak tissue concentration” value was ~ 6 days and 5 to 7 days and 5–7 days. Also, the “Time of highest tissue concentration (first sampling point)” value in data set [7] is given as 60 min. The “Time of highest tissue concentrations” value in data set [7] is at most 4 h.
On to `O=C1Nc2ccc(Cl)cc2C(c2ccccc2)=NC1O` (stereo not drawn) [oxazepam], for which, in the data set on water louse, the “Bioconcentration in water louse compared to European perch (Perca fluviatilis)” value is reported as “higher levels”.
Turning to `O=C(O)C(c1ccccc1)C1CCCCN1` (stereo not drawn) [ritalinic acid, α-phenyl-2-piperidine acetic acid], the “Formation time of ritalinic acid in water” value in data set [3] (10 °C) is 62 h; in data set [3] (20 °C) it was 65 h; in data set [5] (20 °C, static water only) it was 79 h. Further, the “Water concentration, measured end” value in data set [3] (10 °C) is listed as 202 ± 12 ng/L; in data set [3] (20 °C) it was 231 ± 12 ng/L; in [5] (20 °C, static water only), 1606 ng/L. For the same compound, the “Water concentration, measured start” value in data set [3] (10 °C) worked out at 11 ± 10 ng/L; in [3] (20 °C) it was 8 ± 2 ng/L; in data set [5] (20 °C, static water only), 387 ng/L. The “Time after which ritalinic acid concentration surpasses methylphenidate in water” value in [3] (water with biota, depending on temperature) lay in the range of 48 to 100 h; in data set [5] (water without biota, depending on temperature), 48 to 100 h.
